# Organism: Rattus norvegicus
# Test: DrugMatrix - Regimen: Daily Repeat
# Type: toxicity, organism-based, Sprague-Dawley
# Design: regimen Daily Repeat, gender Male, age 6-8 weeks
# Conditions: in vivo, po, 10 mg/kg, route oral GAVAGE, dose level Low, vehicle .5 % CMC; for ABSOLUTE BASOPHIL / ABSOLUTE EOSINOPHIL / ABSOLUTE LYMPHOCYTE / ABSOLUTE MONOCYTE / ABSOLUTE SEGMENTED NEUTROPHIL / BASOPHIL / EOSINOPHIL / ERYTHROCYTE COUNT / HEMATOCRIT / HEMOGLOBIN / LEUKOCYTE COUNT / LYMPHOCYTE / MEAN CORPUSCULAR HEMOGLOBIN / MEAN CORPUSCULAR HEMOGLOBIN CONCENTRATION / MEAN CORPUSCULAR VOLUME / MONOCYTE / NEUTROPHIL / NUCLEATED RED BLOOD CELLS / PLATELET COUNT: tissue Blood; for ALANINE AMINOTRANSFERASE / ALBUMIN / ALKALINE PHOSPHATASE / ASPARTATE AMINOTRANSFERASE / BLOOD UREA NITROGEN / CARBON DIOXIDE / CHLORIDE / CHOLESTEROL / CREATINE PHOSPHOKINASE / CREATININE / GLUCOSE / LACTATE DEHYDROGENASE / LIPASE / PHOSPHORUS / POTASSIUM / SODIUM / TOTAL BILIRUBIN / TOTAL PROTEIN / URIC ACID: tissue Plasma
smiles,measurement,setting,value
Fc1ccc(C(c2ccc(F)cc2)N2CCN(C/C=C/c3ccccc3)CC2)cc1 [FLUNARIZINE],ABSOLUTE BASOPHIL,"72 h, time 3 day",0 CELLS/uL
same,ABSOLUTE EOSINOPHIL,"72 h, time 3 day",0 CELLS/uL
same,ABSOLUTE LYMPHOCYTE,"72 h, time 3 day",15150 CELLS/uL
same,ABSOLUTE MONOCYTE,"72 h, time 3 day",74.33 CELLS/uL
same,ABSOLUTE SEGMENTED NEUTROPHIL,"72 h, time 3 day",1309 CELLS/uL
same,BASOPHIL,"72 h, time 3 day",0%
same,EOSINOPHIL,"72 h, time 3 day",0%
same,ERYTHROCYTE COUNT,"72 h, time 3 day",6.09 x10E6/uL
same,HEMATOCRIT,"72 h, time 3 day",37.17%
same,HEMOGLOBIN,"72 h, time 3 day",14.73 G/DL
same,LEUKOCYTE COUNT,"72 h, time 3 day",16.53 x10E3/uL
same,LYMPHOCYTE,"72 h, time 3 day",91.33%
same,MEAN CORPUSCULAR HEMOGLOBIN,"72 h, time 3 day",24.2 pg
same,MEAN CORPUSCULAR HEMOGLOBIN CONCENTRATION,"72 h, time 3 day",39.67 G/DL
same,MEAN CORPUSCULAR VOLUME,"72 h, time 3 day",61.03 fL
same,MONOCYTE,"72 h, time 3 day",0.33%
same,NEUTROPHIL,"72 h, time 3 day",8.33%
same,NUCLEATED RED BLOOD CELLS,"72 h, time 3 day",0.33 /100WBC
same,PLATELET COUNT,"72 h, time 3 day",1291 x10E3/uL
same,ALANINE AMINOTRANSFERASE,"72 h, time 3 day",42.67 u/L
same,ALBUMIN,"72 h, time 3 day",4.7 G/DL
same,ALKALINE PHOSPHATASE,"72 h, time 3 day",347.33 u/L
same,ASPARTATE AMINOTRANSFERASE,"72 h, time 3 day",90.33 u/L
same,BLOOD UREA NITROGEN,"72 h, time 3 day",18 mg/dL
same,CARBON DIOXIDE,"72 h, time 3 day",20 mmol/L
same,CHLORIDE,"72 h, time 3 day",101 MEQ/L
same,CHOLESTEROL,"72 h, time 3 day",87.67 mg/dL
same,CREATINE PHOSPHOKINASE,"72 h, time 3 day",406.67 u/L
same,CREATININE,"72 h, time 3 day",0.23 mg/dL
same,GLUCOSE,"72 h, time 3 day",149 mg/dL
same,LACTATE DEHYDROGENASE,"72 h, time 3 day",371.67 u/L
same,LIPASE,"72 h, time 3 day",9 u/L
same,PHOSPHORUS,"72 h, time 3 day",12.27 mg/dL
same,POTASSIUM,"72 h, time 3 day",6.75 MEQ/L
same,SODIUM,"72 h, time 3 day",143.6 MEQ/L
same,TOTAL BILIRUBIN,"72 h, time 3 day",0.2 mg/dL
same,TOTAL PROTEIN,"72 h, time 3 day",6.57 G/DL
same,URIC ACID,"72 h, time 3 day",1.67 mg/dL
same,ABSOLUTE BASOPHIL,"120 h, time 5 day",0 CELLS/uL
same,ABSOLUTE EOSINOPHIL,"120 h, time 5 day",122 CELLS/uL
same,ABSOLUTE LYMPHOCYTE,"120 h, time 5 day",14703 CELLS/uL
same,ABSOLUTE MONOCYTE,"120 h, time 5 day",297.33 CELLS/uL
same,ABSOLUTE SEGMENTED NEUTROPHIL,"120 h, time 5 day",711 CELLS/uL
same,BASOPHIL,"120 h, time 5 day",0%
same,EOSINOPHIL,"120 h, time 5 day",0.67%
same,ERYTHROCYTE COUNT,"120 h, time 5 day",5.61 x10E6/uL
same,HEMATOCRIT,"120 h, time 5 day",36.03%
same,HEMOGLOBIN,"120 h, time 5 day",14.1 G/DL
same,LEUKOCYTE COUNT,"120 h, time 5 day",15.83 x10E3/uL
same,LYMPHOCYTE,"120 h, time 5 day",93%
same,MEAN CORPUSCULAR HEMOGLOBIN,"120 h, time 5 day",25.13 pg
same,MEAN CORPUSCULAR HEMOGLOBIN CONCENTRATION,"120 h, time 5 day",39.17 G/DL
same,MEAN CORPUSCULAR VOLUME,"120 h, time 5 day",64.2 fL
same,MONOCYTE,"120 h, time 5 day",2%
same,NEUTROPHIL,"120 h, time 5 day",4.33%
same,NUCLEATED RED BLOOD CELLS,"120 h, time 5 day",0 /100WBC
same,PLATELET COUNT,"120 h, time 5 day",1316 x10E3/uL
same,ALANINE AMINOTRANSFERASE,"120 h, time 5 day",52 u/L
same,ALBUMIN,"120 h, time 5 day",4.43 G/DL
same,ALKALINE PHOSPHATASE,"120 h, time 5 day",419 u/L
same,ASPARTATE AMINOTRANSFERASE,"120 h, time 5 day",84.33 u/L
same,BLOOD UREA NITROGEN,"120 h, time 5 day",14.67 mg/dL
same,CARBON DIOXIDE,"120 h, time 5 day",24 mmol/L
same,CHLORIDE,"120 h, time 5 day",103.67 MEQ/L
same,CHOLESTEROL,"120 h, time 5 day",74.33 mg/dL
same,CREATINE PHOSPHOKINASE,"120 h, time 5 day",286 u/L
same,CREATININE,"120 h, time 5 day",0.11 mg/dL
same,GLUCOSE,"120 h, time 5 day",150.67 mg/dL
same,LACTATE DEHYDROGENASE,"120 h, time 5 day",187.33 u/L
same,LIPASE,"120 h, time 5 day",8.67 u/L
same,PHOSPHORUS,"120 h, time 5 day",14.07 mg/dL
same,POTASSIUM,"120 h, time 5 day",6.62 MEQ/L
same,SODIUM,"120 h, time 5 day",147.27 MEQ/L
same,TOTAL BILIRUBIN,"120 h, time 5 day",0.2 mg/dL
same,TOTAL PROTEIN,"120 h, time 5 day",6.03 G/DL
same,URIC ACID,"120 h, time 5 day",1.67 mg/dL
